In ChEMBL document CHEMBL1134854, “Synthesis and biological evaluation of N-(7-indolyl)-3-pyridinesulfonamide derivatives as potent antitumor agents” (Bioorg Med Chem Lett, 2002):
“And” between values parts separate entries of the source, which are not always exact repeats. Equal entries are not always repeated.

Tests used:
Colon cancer cell line [1] = test: In vivo activity as average tumor weight on day 22/average tumor weight in control group on day 22*100; drug administered intraperitoneal; assay type: functional, Homo sapiens
HCT-116 = test: Inhibitory concentration in vitro against HCT116 human colon cancer cells were determined for 72 h; assay type: functional, cell-based; conditions: HCT-116, 72 h
Mus musculus = organism: Mus musculus; test: Number of deaths per total number of aminals tested; 0/5; assay type: functional
Colon cancer cell line [2] = test: In vivo activity as average tumor volume on day 9/average tumor volume on day 1; drug administered intraperitoneal; assay type: functional, Homo sapiens
Colon cancer cell line [3] = test: In vivo activity as average tumor volume on day 9/average tumor volume on day 1; drug administered per oral; assay type: functional, Homo sapiens
Colon cancer cell line [4] = test: In vivo activity as average tumor weight on day 22/average tumor weight in control group on day 22*100; drug administered per oral; assay type: functional, Homo sapiens
Colon cancer cell line [5] = test: In vivo activity as average tumor weight on day 22/average tumor weight in control group on day 22*100; drug administered intra venously; assay type: functional, Homo sapiens
Colon cancer cell line [6] = test: In vivo activity as average tumor volume on day 9/average tumor volume on day 1; drug administered intra venously; assay type: functional, Homo sapiens
Colon cancer cell line [7] = test: In vivo activity as average tumor volume on day 9/average tumor volume on day 1 drug administered per oral; assay type: functional, Homo sapiens

SMILES | Day 22-T/C (Colon cancer cell line [1]) | IC50 (HCT-116) | Deaths/total (Mus musculus) | Day 9-RTV (Colon cancer cell line [2]) | Day 9-RTV (Colon cancer cell line [3]) | Day 22-T/C (Colon cancer cell line [4]) | Day 22-T/C (Colon cancer cell line [5]) | Day 9-RTV (Colon cancer cell line [6]) | Day 9-RTV (Colon cancer cell line [7])
O=S(=O)(Nc1cccc2c(Cl)c[nH]c12)c1cccnc1 | 70% | 260 nM | 0% | 3.4 |  |  |  |  | 
Cc1cncc(S(=O)(=O)Nc2cccc3c(C#N)c[nH]c23)c1 | 30% | 190 nM | 0% | 0.52 | 3.4 | 106% |  |  | 
O=S(=O)(Nc1cccc2c(Cl)c[nH]c12)c1ccc(NCCO)nc1 | 89% | 650 nM | 0% | 4.3 |  |  |  |  | 
NS(=O)(=O)c1ccc(S(=O)(=O)Nc2cccc3c(Cl)c[nH]c23)cn1 | 12% and 23% | 290 nM | 0% | 0.1 and 0.29 |  |  | 8% | 0.15 | 
O=S(=O)(Nc1cccc2c(Cl)c[nH]c12)c1ccc(O)nc1 | 66% | 800 nM | 0% | 3 |  |  |  |  | 
N#Cc1c[nH]c2c(NS(=O)(=O)c3cccnc3)cccc12 | 65% | 230 nM | 0% | 2.6 |  |  |  |  | 
CNc1ccc(S(=O)(=O)Nc2cccc3c(Cl)c[nH]c23)cn1 | 38% | 860 nM | 0% | 0.24 |  |  |  |  | 
Cc1cncc(S(=O)(=O)Nc2cccc3c(Cl)c[nH]c23)c1 | 82% | 220 nM | 0% | 3.7 |  |  |  |  | 
N#Cc1c[nH]c2c(NS(=O)(=O)c3ccc(N)nc3)cccc12 | 35% | 640 nM | 0% | 1.5 |  | 75% |  |  | 2.3
Nc1ccc(S(=O)(=O)Nc2cccc3c(Cl)c[nH]c23)cn1 | 26% | 710 nM | 0% | 0.3 | 0.19 | 12% |  |  | 
CC(C)Nc1ccc(S(=O)(=O)Nc2cccc3c(Cl)c[nH]c23)cn1 |  | 1300 nM | 0% | 0.28 and 0.9 |  |  |  |  | 
